The values that follow come from paper PMC12621043, “Un-LOK-ing a New Approach for Conformational Selective Targeting of STK10 (LOK)” (ACS Medicinal Chemistry Letters, 2025).

Each structure is given as a SMILES string.

Common to all, as to assay: DSF Tm panel
What all share (type): binding
Conditions in all cases: 10 μM compound

The target in assay [1] is T1, DCAMKL1A (Homo sapiens, UniProt O15075).
T1 construct: purchased in-house DSF kinase panel (SGC-style construct names; the trailing letter is the construct ID)
T1 sequence (O15075 372-649): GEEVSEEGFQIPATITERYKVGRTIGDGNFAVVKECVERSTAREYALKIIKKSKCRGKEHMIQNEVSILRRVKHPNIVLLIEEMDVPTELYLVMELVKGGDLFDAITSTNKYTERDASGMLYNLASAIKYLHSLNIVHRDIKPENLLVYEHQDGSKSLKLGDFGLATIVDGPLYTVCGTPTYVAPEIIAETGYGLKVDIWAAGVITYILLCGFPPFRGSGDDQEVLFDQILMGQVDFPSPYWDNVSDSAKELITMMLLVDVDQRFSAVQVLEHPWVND

Assay [2] concerns the target T2, STK6A (Homo sapiens, UniProt O14965).
T2 construct: purchased in-house DSF kinase panel (SGC-style construct names; the trailing letter is the construct ID)
T2 sequence (O14965 122-403): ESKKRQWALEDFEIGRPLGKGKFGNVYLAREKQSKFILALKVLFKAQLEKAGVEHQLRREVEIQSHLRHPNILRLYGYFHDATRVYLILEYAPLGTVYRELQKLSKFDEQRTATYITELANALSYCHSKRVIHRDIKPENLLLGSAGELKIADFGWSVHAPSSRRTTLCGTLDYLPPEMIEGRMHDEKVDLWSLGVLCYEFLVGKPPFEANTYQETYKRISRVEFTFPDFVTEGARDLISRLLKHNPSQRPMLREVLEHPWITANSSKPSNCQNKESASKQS
The protocol: (§1) The synthesized urea-based derivatives were evaluated in a panel of kinases by differential scanning fluorescence (DSF) to investigate their selectivity profile. A positive ΔT m in the DSF assay indicates stabilization of the protein upon ligand binding in comparison to its apo state, with higher thermal shifts generally correlating with stronger binding. For this purpose, we used our internal kinase selectivity panel (∼90 kinases) along with staurosporine as a positive control. […] This was also reflected in the overall low selectivity score (S) throughout the series, which is determined by the ratio between the number of kinases that are stabilized above 5 °C and the total number of kinases tested (Figure ). Motivated by these findings, we further validated the entire series by orthogonal binding and activity assays to determine the in vitro and cellular potency and selectivity of the developed series in comparison to the selected reference compounds. […]
(§2) was performed as previously described.[1,2] Briefly, recombinant protein kinase domains at a concentration of 2 μM were mixed with 10 μM compound in a buffer containing 20 mM HEPES, […]
(§3) probe (1 µl per mL). Subsequently, temperature-dependent protein unfolding profiles were […]
(§4) emission filters were set to 465 nm and 590 nm, respectively. The temperature was raised with a step rate of 3 °C per minute. […]
(§5) inflection point of the transition curve. […]
(§6) previously.[3] In brief, STK10, STK3, STK4 and SLK were obtained as plasmids cloned in […]
(§7) Plasmids were transfected into
(§8) KD concentration taken from TracerDB (tracerdb.org)[4] were pipetted into white 384-well

In assay [3] the target is T3, TTKA (Homo sapiens, UniProt P33981).
T3 construct: purchased in-house DSF kinase panel (SGC-style construct names; the trailing letter is the construct ID)
T3 sequence (P33981 519-808): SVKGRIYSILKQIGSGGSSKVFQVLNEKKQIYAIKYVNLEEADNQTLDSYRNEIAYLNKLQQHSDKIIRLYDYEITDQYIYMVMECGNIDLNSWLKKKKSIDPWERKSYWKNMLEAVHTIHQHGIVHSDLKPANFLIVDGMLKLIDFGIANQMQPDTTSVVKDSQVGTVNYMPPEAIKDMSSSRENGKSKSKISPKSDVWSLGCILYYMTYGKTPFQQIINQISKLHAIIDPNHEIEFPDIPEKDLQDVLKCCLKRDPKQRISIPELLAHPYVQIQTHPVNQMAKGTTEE
Here is the method:
as §1, §2, §3, §4, §5, §6, §7, §8

In assay [4] the target is T4, PLK4A (Homo sapiens, UniProt O00444).
T4 construct: purchased in-house DSF kinase panel (SGC-style construct names; the trailing letter is the construct ID)
T4 sequence (O00444 2-275): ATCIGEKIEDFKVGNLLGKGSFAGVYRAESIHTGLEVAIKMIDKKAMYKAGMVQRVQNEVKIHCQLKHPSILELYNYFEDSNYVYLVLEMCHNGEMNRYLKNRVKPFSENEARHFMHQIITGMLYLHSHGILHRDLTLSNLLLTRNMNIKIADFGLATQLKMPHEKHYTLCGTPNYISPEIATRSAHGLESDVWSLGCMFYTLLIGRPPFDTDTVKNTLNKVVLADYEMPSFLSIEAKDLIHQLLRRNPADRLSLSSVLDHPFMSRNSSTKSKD
The protocol:
as §1, §2, §3, §4, §5, §6, §7, §8

Assay [5] concerns the target T5, CAMK4A (Homo sapiens, UniProt Q16566).
T5 construct: purchased in-house DSF kinase panel (SGC-style construct names; the trailing letter is the construct ID)
T5 sequence (Q16566 1-473): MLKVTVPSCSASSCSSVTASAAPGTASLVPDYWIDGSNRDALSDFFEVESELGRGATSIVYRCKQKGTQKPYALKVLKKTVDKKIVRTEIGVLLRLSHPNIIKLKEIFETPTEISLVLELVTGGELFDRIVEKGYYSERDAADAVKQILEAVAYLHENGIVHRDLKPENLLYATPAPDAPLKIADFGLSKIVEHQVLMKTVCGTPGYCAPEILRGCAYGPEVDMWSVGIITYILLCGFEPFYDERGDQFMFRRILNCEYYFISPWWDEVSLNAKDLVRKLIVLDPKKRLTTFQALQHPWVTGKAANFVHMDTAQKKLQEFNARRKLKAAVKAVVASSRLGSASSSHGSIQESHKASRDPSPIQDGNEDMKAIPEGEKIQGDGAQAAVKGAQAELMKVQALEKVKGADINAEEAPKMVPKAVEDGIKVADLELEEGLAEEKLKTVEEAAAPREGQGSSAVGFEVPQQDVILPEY
The protocol:
as §1, §2, §3, §4, §5, §6, §7, §8

The target of assay [6] is T6, MAP3K5A (Homo sapiens, UniProt Q99683).
T6 construct: purchased in-house DSF kinase panel (SGC-style construct names; the trailing letter is the construct ID)
T6 sequence (Q99683 659-951): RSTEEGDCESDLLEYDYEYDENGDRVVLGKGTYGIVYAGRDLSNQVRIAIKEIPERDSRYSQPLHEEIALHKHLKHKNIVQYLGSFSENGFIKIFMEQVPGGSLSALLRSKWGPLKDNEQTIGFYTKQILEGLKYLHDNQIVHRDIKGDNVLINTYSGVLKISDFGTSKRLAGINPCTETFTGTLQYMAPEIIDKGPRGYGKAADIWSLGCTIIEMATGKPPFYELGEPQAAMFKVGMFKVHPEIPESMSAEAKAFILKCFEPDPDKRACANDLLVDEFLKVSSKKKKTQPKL

For assay [7], the target named is T7, VRK1A (Homo sapiens, UniProt Q99986).
T7 construct: purchased in-house DSF kinase panel (SGC-style construct names; the trailing letter is the construct ID)
T7 sequence (Q99986 1-396): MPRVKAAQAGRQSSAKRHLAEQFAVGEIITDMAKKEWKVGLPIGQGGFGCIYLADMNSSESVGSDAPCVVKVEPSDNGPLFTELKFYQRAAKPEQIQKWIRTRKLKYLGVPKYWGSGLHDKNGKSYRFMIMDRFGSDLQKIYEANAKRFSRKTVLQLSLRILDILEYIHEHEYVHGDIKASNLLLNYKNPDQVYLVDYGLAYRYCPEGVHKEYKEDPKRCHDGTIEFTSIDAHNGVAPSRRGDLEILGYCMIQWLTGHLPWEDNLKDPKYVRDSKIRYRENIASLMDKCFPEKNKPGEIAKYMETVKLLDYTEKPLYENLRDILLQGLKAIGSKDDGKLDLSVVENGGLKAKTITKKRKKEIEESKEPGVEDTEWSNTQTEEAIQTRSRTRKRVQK

In assay [8] the target is T8, PIM1 (PIM1A) (Homo sapiens, UniProt P11309).
T8 construct: purchased in-house DSF kinase panel (SGC-style construct names; the trailing letter is the construct ID)
T8 sequence (P11309 whole entry): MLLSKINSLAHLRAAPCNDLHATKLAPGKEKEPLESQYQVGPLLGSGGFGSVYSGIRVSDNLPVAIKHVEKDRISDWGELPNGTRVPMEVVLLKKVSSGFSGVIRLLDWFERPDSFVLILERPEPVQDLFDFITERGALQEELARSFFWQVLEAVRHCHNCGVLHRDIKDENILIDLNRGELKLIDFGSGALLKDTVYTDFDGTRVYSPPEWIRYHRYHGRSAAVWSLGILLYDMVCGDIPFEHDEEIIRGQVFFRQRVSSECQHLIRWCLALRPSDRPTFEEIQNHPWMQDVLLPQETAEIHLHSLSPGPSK

Assay [9] addresses T9, CAMK2BA (Homo sapiens, UniProt Q13554).
T9 construct: purchased in-house DSF kinase panel (SGC-style construct names; the trailing letter is the construct ID)

T9 sequence (Q13554 11-303): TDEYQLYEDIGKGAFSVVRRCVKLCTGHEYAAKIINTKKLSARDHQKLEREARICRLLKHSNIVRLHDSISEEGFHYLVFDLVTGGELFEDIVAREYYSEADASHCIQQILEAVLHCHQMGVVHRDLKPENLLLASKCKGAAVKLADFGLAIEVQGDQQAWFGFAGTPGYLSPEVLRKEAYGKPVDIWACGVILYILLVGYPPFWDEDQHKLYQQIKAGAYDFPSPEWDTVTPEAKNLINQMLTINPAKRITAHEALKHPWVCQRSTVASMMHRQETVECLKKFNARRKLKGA

As a reminder, the ΔTm is the shift of the melting midpoint relative to a reference. In the case of `COc1ccccc1CNC(=O)Nc1ccc2cc1OCCOCCNc1ccn3ncc-2c3n1` [compound 29], the ΔTm at 10 µM in assay [1] was found to be 0.9 °C; in assay [2], 5.6 °C; in [3], 1.4 °C; in assay [4], 3 °C; in [5], 0.6 °C; in [6], 1 °C. In addition, the ΔTm at 10 µM is 0 °C in [7], 1 °C in [8] and -0.2 °C in [9].
As to `COc1cccc(CNC(=O)Nc2ccc3cc2OCCOCCNc2ccn4ncc-3c4n2)c1` [compound 30], the shift in melting temperature (ΔTm) at 10 µM in assay [1] came to 1.2 °C; in assay [2], 7.4 °C; in assay [3], 1.6 °C; in assay [4] it was 3.5 °C; in assay [5], 0.8 °C; in [6], 1.5 °C. The ΔTm at 10 µM in assay [7] is 0.3 °C; in [8], 1 °C; in assay [9], -0.2 °C.
On to `COc1ccc(CNC(=O)Nc2ccc3cc2OCCOCCNc2ccn4ncc-3c4n2)cc1` [compound 31], for which the ΔTm at 10 µM came out at 1.4 °C in [1]; 8 °C in assay [2]; 1.8 °C in [3]; 4.9 °C in [4]; 1.1 °C in assay [5]; 1.6 °C in assay [6]. Further, the ΔTm at 10 µM in assay [7] was 0.2 °C; in assay [8] it was 2 °C; in assay [9], -0.1 °C.
Turning to `COc1ccc(CNC(=O)Nc2ccc3cc2OCCOCCNc2ccn4ncc-3c4n2)cc1F` [compound 32], the ΔTm at 10 µM in assay [1] was determined as 1.6 °C; in assay [2], 7.6 °C; in [3], 2.4 °C; in assay [4], 4.6 °C; in assay [5] it was 0.9 °C; in [6], 2 °C. Also, the ΔTm at 10 µM in [7] was 0.2 °C; in assay [8] it was 1.7 °C; in assay [9], 0 °C.
For the compound `COc1cc(CNC(=O)Nc2ccc3cc2OCCOCCNc2ccn4ncc-3c4n2)ccc1F` [compound 33], the ΔTm at 10 µM came out at 2.2 °C in assay [1]; 9.9 °C in [2]; 2 °C in assay [3]; 5.5 °C in assay [4]; 1 °C in assay [5]; 2.8 °C in assay [6]. Also, the ΔTm at 10 µM in [7] is 0.3 °C; in assay [8], 1.6 °C; in assay [9], 0.1 °C.
With `C[C@H](NC(=O)Nc1ccc2cc1OCCOCCNc1ccn3ncc-2c3n1)c1ccccc1` [compound 34], the ΔTm at 10 µM in assay [1] amounted to 1.9 °C; in [2], 7.7 °C; in [3], 1.8 °C; in assay [4], 4.7 °C; in assay [5] it was 0.6 °C; in assay [6] it was 0.8 °C. The ΔTm at 10 µM was 0 °C in [7], 0.6 °C in [8] and -0.3 °C in assay [9].
As to `CN1CCN(C(=O)Nc2ccc3cc2OCCOCCNc2ccn4ncc-3c4n2)CC1` [compound 35], the ΔTm at 10 µM in assay [1] turned out to be 0.6 °C; in [2] it was 2.4 °C; in assay [3], 0.3 °C; in assay [4] it was 3 °C; in assay [5], 0 °C; in [6] it was 1.7 °C. Further, the ΔTm at 10 µM in [7] is -0.1 °C; in [8], 2.4 °C; in [9], 0.6 °C.
